In the assay the test system is murine melanoma named B16. In words: Inhibition of melanin biosynthesis in secondary cultures of murine melanoma B16, 72 hours of exposure. In kind it is cell-based. The protocol:
In order to evaluate the inhibition of melanin biosynthesis by the present mixture, an in vitro experimental model was used which consists of secondary cultures of a murine melanoma named B16. This strain is composed of cells with fibroblastoid morphology which produce melanin (Source: European Collection of Cell Cultures, ECACC).
For the tests, powders of the active ingredients were dissolved in ethanol and propylene glycol (1:1) at 10% (w/w) followed by dilution in culture medium DMEM high glucose+10% FBS supplemented with antibiotics (Penicillin 2000 IU/ml, Streptomycin 1000 IU/ml, Gentamicin 10 mg/ml) to final concentrations of: • A) 4-(1-phenylethyl)-1,3-benzenediol: 10 μg/ml; • B) Acetylglucosamine: 25 μg/ml, 50 μg/ml, 75 μg/ml; • C) Ethyl linoleate: 50 μg/ml; • D) 4-(1-phenylethyl)-1,3-benzenediol at concentration of 10 μg/ml and acetylglucosamine at concentration of 75 μg/ml; • E) 4-(1-phenylethyl)-1,3-benzenediol at a concentration of 10 μg/ml, acetylglucosamine at a concentration of 75 μg/ml, and ethyl linoleate at a concentration of 75 μg/ml. • F) hydroquinone at a concentration of 5 μg/ml (non-cytotoxic concentration)
At passage 30 the afore said cells were seeded on 6-well plates for 24 hours at a concentration of 80,000 cells per well. Then, fresh culture medium containing the afore said samples was added. Untreated cells were used as a negative control, whereas cells treated with hydroquinone at a non-cytotoxic concentration of 5 μg/ml were used as a positive control, as indicated above at point F).
Each sample was tested in duplicate.
After 72 hours of exposure, melanin and intracellular proteins were dosed.
Cells were washed once with phosphate buffered saline (PBS) and then lysed with NaOH 0.1N. The lysate was heated at 60° C. for 1 hour to allow melanin to be solubilized.
In order to evaluate the amount of melanin in the cell lysate, a spectrophotometric reading was taken at a wavelength of 405 nm with the use of a colorimeter (Tecan Sunrise Remote Model) equipped with a plate reader.
A standard curve for melanin titrated from 15 to 500 μg/ml was prepared.
The protein dosage was carried out according to the Bradford's method (Bradford M., […]). […]
The reading was taken at 595 nm with a colorimeter (Tecan, Sunrise) equipped with a plate reader.
In order to quantify protein and melanin contents, a standard calibration curve for albumin and melanin was constructed, and their concentrations in the samples were calculated by using the curve fit formula and the corresponding absorbances.
Then, averages of individual data were calculated and, for each sample, the percentage reduction of melanin was calculated compared to the negative control: […]

The values that follow come from patent US20150110725A1, “MIXTURE FOR THE INHIBITION OF MELANIN BIOSYNTHESIS” (GENERAL TOPICS S.R.L., priority 2012, published 2015).

Each structure is given as a SMILES string.

Regarding `CC(c1ccccc1)c1ccc(O)cc1O` (stereo not shown) [4-(1-phenylethyl)-1,3-benzenediol], for the setting “10 μg/ml, B16 cells, 72 h”, the “percentage reduction in melanin biosynthesis” value is “about 50%”.

In the case of `CC(=O)N[C@@H]1[C@@H](O)[C@H](O)[C@@H](CO)O[C@@H]1O` [acetylglucosamine], under “acetylglucosamine alone, average over 25 μg/ml, 50 μg/ml and 75 μg/ml, B16 cells, 72 h”, the “average reduction in melanin biosynthesis” value is listed as 8%.

With `CCCCC/C=C\C/C=C\CCCCCCCC(=O)OCC` [ethyl linoleate], the “ability to inhibit melanin synthesis when used individually” value (ethyl linoleate alone (50 μg/ml), compared with the mixture containing it) is “significantly lower than that of the present mixture”.

As to `Oc1ccc(O)cc1` [hydroquinone], the inhibition at 5 µg/mL (Mus musculus, hydroquinone at non-cytotoxic concentration (5 μg/ml), positive control, B16 cells, 72 h, read-out: ability to inhibit melanin biosynthesis) is around 40%.
